From patent US12343319B2, “Compositions and methods for treatment of diseases and disorders” (Atai Therapeutics Inc., priority 2023, dated 2025)
Entries after “also recorded” stand apart in the source; their conditions may differ.

Tests used:
Male Sprague-Dawley rats = assay: 5-HT2A/2C/1A-mediated behaviors, locomotor activity and body temperature in rats; type: in vivo, rat
Protocol: Forty (40) male Sprague-Dawley rats were used as test subjects in this study. Animals were dosed with vehicle (IP), one of 3 doses of compound 2-2 (3 mg/kg, 10 mg/kg, 30 mg/kg IP) or psilocybin (1 mg/kg SC) and, following the appropriate pre-treatment time, were placed in locomotor activity boxes and continuously monitored for a 1 hr period with data collected into 10-minute time bins. Animals were visually assed for overt behavioral signs, including biomarkers for 5-HT2A receptor target engagement (i.e. wet dog shakes, back muscle contractions and stereotypic behaviors), 5-HT2C receptor activation (yawning, penile grooming), and 5-HT1A behaviors (forepaw treading, hindlimb abduction). Additional behavioral and somatic signs characteristic of 5-HT syndrome (i.e. tremor, salivation, flat body posture) also were measured. Core body temperature change was determined at 0 hr (pre-dose), 1 hr, and 2 hr. Simultaneously, the spontaneous locomotor activity of the rats was measured using automated Med Associates activity test chambers. Activity data collected included total distance travelled, rearing counts, and ambulatory episodes. LMA was measured for a total of 2 hours (i.e. the first hour to include visual assessments of behavioral signs, and the second hour the animals will not be assessed for behavioral signs) with data collected into 10 minute time bins. The tracking arena measured 17″ W×17″ L×12″ H, sensor bars were secured 1″ above the floor to track distance travelled, and a second set of sensor bars were placed ˜5″ above the floor to measure vertical movement and rearing activity. The parameters set on the tracking software were as follows: resolution −50 ms, box size −4 beams, resting delay −500 ms, and ambulatory trigger −3.
Table 14 outlines receptor activity and related behavioral and/or physiological measures.

male Sprague Dawley rats = assay: Psilocybin operant drug discrimination in rats; type: in vivo, rat
Protocol: Thirty-six (36) male Sprague Dawley rats served as subjects. Rats had been trained to lever press for food in standard operant conditioning chambers controlled by Med-PC software (Med. Associates Inc., St. Albans, VT) followed by training to associate the right lever to a psilocybin stimulus (0.5 mg/kg, SC), and the left lever to a neutral stimulus (saline, SC). The sequence of psilocybin and saline injections were administered under a randomized design where neither condition was administered for more than 3 consecutive days. […] The rats continued to receive a daily food ration (˜18 g at day end) with ad libitum access to water in their home cages.
Test sessions continued until 50 pellets had been obtained or 30 min had elapsed. During these sessions, response rate was also measured. Three types of tests were conducted: • 1. Dose-response profile for compound 2-2 to generalize to the psilocybin cue. On test days, rats received a single compound 2-2 dose (1, 3, or 10 mg/kg, IP) 10 min prior to test. The distribution of vehicle vs. drug-paired lever presses was recorded as well as the rate of lever response. • 2. Effect of the 5-HT subtype selective antagonists, M100907 (5-HT2A receptor selective; Kehne et al, 1996) and SB242084 (5-HT2C receptor selective, Kennett et al, 1997) against the generalization of compound 2-2. On test days, the rats received a single dose (0.5 mg/kg IP) of either antagonist 30 min before compound 2-2 (10 mg/kg, IP), which was administered 10 min prior to testing. The distribution of vehicle vs. drug-paired lever presses was recorded as well as the rate of lever response. • 3. Time-course profile for compound 2-2 (10 mg/kg IP) to generalize to the psilocybin cue. On test days, the rats received a single compound 2-2 dose (10 mg/kg, IP) at various pretreatment times (i.e., 10 min, 30 min, 1 h, 2 h, 4 h, 8 h) prior to test. The distribution of vehicle vs. drug-paired lever presses was recorded as well as the rate of lever response.
Drug testing was conducted on a Tuesday and Friday with the animals run on either vehicle or training drug (psilocybin 0.5 mg/kg, SC) on intervening weekdays. Group sizes varied among doses and pretreatment times and tended to be higher under situations where the choice response was more variable. This adjustment was made in an attempt to get as reliable a measure of drug vs. vehicle discrimination as possible at that specific dose or pretreatment time.

5-HT2A receptor = 5-HT2A receptor (Mus musculus, UniProt P35363); assay: 5-HT2A receptor binding in mouse frontal cortical tissue
[1] = target: T1, 5-HT2A receptors in the mouse frontal cortex (Mus musculus, UniProt P35363); assay: Ex vivo 5-HT2A receptor occupancy ([3H]cimbi-36) in mouse frontal cortex
T1 construct: Left frontal cortices from each animal were homogenized individually; from tissue

[2] = 5-HT1A agonism, 3, 10, 30 mg/kg IP
[3] = 5-HT2C agonism, 3, 10, 30 mg/kg IP
[4] = excess 5-HT agonism (5-HT syndrome), 3, 10, 30 mg/kg IP

T1 sequence (P35363 whole entry): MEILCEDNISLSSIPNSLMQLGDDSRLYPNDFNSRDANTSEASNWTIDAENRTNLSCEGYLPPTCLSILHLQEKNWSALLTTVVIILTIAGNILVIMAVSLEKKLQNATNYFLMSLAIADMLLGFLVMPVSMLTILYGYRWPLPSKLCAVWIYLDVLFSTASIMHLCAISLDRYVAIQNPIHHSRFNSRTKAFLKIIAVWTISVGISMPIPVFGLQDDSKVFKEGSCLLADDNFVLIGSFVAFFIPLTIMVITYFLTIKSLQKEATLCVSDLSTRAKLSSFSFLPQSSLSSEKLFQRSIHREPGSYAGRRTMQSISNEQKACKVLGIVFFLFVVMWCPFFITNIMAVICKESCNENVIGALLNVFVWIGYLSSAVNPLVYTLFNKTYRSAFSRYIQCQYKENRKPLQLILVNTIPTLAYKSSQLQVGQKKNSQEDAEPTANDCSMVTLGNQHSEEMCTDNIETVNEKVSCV
Sequence of 5-HT2A receptor (P35363 whole entry): as above

## COc1ccc(OC)c(CCNCc2cc(C)cc(F)c2)c1 [Compound 2-2, 2-(2,5-dimethoxyphenyl)-N-(3-fluoro-5-methylbenzyl)ethan-1-amine]
Male Sprague-Dawley rats; 30 mg/kg IP
  distance travelled during the first 20 minutes of the 2 hour test: decreased
  total ambulatory episodes: decreased
  total rearing counts: decreased
Male Sprague-Dawley rats; 3, 10, 30 mg/kg IP, 2 hour test
  total distance travelled: did not affect
Male Sprague-Dawley rats; 5-HT1A agonism / excess 5-HT agonism, 30 mg/kg IP (highest dose tested), 30 mg/kg
  Flat body posture: induced flat body posture; also recorded: Significant Increase
Male Sprague-Dawley rats; [2]
  Forepaw treading (FPT): No effect
  Hindlimb abduction (HLA): No effect
Male Sprague-Dawley rats; [3]
  Penile grooming (PG): No effect
  Yawning: No effect
Male Sprague-Dawley rats; [4]
  Salivation: No effect
  Tremor: No effect
Male Sprague-Dawley rats; mixed/non-selective, 30 mg/kg IP
  Locomotor activity: Significant decrease
Male Sprague Dawley rats; 10 mg/kg IP after M100907 0.5 mg/kg IP (30 min before)
  generalization to the psilocybin cue: 2+1%
Male Sprague Dawley rats; 10 mg/kg IP after SB242084 0.5 mg/kg IP (30 min before)
  generalization to the psilocybin cue: 71+14%
Male Sprague Dawley rats; 10 mg/kg IP following antagonist pretreatment
  response rate: no significant effect
Male Sprague Dawley rats; 10 mg/kg IP, 10 min prior to test (Veh pretreatment)
  generalization to the psilocybin cue: 91+8%
Male Sprague Dawley rats; 10 mg/kg IP, pretreatment time 4 h
  generalization to the psilocybin cue: ~35%
Male Sprague Dawley rats; 10 mg/kg IP, pretreatment times of 10 and 30 min
  generalization to the psilocybin cue: ~80%
Male Sprague Dawley rats; 10 mg/kg IP, across pretreatment times 10 min-8 h
  response rate: minor effect
Male Sprague Dawley rats; 10 mg/kg IP, only at 10 min post dose
  rate of responding: modestly suppressed
Male Sprague Dawley rats; dose range 1-10 mg/kg IP
  response rate: minor effects
5-HT2A receptor
  IC50: 20.8 nM
5-HT2A receptor; Ki, Mean (Mouse), mouse frontal cortical tissue
  Ki: 9.6 nM
[1]
  EC50: 1930 nM
[1]; across 1, 3, 10 mg/kg IP
  ex vivo occupancy of 5-HT2A receptors (RO): 21-60%
[1]; in brain
  brain concentration at 50% 5-HT2A RO: 1608 ng/g
[1]; mouse, 1 mg/kg IP, 15 minutes post dosing, read-out: % Receptor Occupancy (RO)
  receptor occupancy at 1 mg/kg: 21%
[1]; mouse, 1 mg/kg IP, 15 minutes post dosing, read-out: % of Control Binding
  remaining activity at 1 mg/kg: 79%
[1]; mouse, 3 mg/kg IP, 15 minutes post dosing, read-out: % Receptor Occupancy (RO)
  receptor occupancy at 3 mg/kg: 37%
[1]; mouse, 3 mg/kg IP, 15 minutes post dosing, read-out: % of Control Binding
  remaining activity at 3 mg/kg: 63%
[1]; mouse, 10 mg/kg IP, 15 minutes post dosing, read-out: % Receptor Occupancy (RO)
  receptor occupancy at 10 mg/kg: 60%
[1]; mouse, 10 mg/kg IP, 15 minutes post dosing, read-out: % of Control Binding
  remaining activity at 10 mg/kg: 40%
[1]; mouse, IP, non-linear regression, read-out: dose at 50% 5-HT2A RO
  ED50: 6.14 mg/kg
